The structures appear in SMILES notation. Read-outs that look alike come from different tables or passages of the source.

One experiment concerns A549 cells. As to the kind of experiment: Intracellular ROS measurement (DCFH-DA). Format: cell-based, human. Conditions: A549, 45 μg/ml, 6 h incubation. Here is the method: The assay was conducted as described by Ling et al. with some minor modifications. The ROS measurement was done using the fluorescent probe 2’,7’-dichlorofluorescein diacetate (DCFH-DA) that enabled the monitoring of intracellular accumulation of ROS. The A549 cells were seeded into a 96 well plate with a density of 2×10^4 cells per well and allowed to attach overnight. Treatment with chalepin at various concentrations were done the next day and incubated for different time periods. At the end of the incubation period, the media was removed and 5 μM of DCFH-DA which is diluted in media was added to the cells and incubated for 40 min at 37 °C. The cells were then washed three times with clear media and the fluorescence intensity (excitation = 485 nm and emission = 530 nm) was measured using a microplate reader. The morphology of the cells were observed using a fluorescence microscope.

For a further experiment, the system named is caspase 9 in A549 cells. As to the kind of experiment: Caspase-9 activity (CaspILLUME, flow cytometry). It is filed as cell-based, human. The settings on record: 45 μg/ml. Here is the method:
Caspase activity assays were performed according to the instructions in the manual (CaspILLUME, Genetex). Cells were seeded at a density of 1×10^6 cells per culture dish. After being subjected to treatment for 48 and 72 h, the cells were detached with accutase, washed, and resuspended in PBS. Next, 300 μL of each sample was aliquoted into centrifuge tubes, after which 1 μL of fluorescent substrate (FITC-DEVD-FMK for caspase 3 and FITC-LEHD-FMK for caspase 9 activity) was added to each tube and incubated for 1 h at 37°C incubator. At the end of the incubation period, the cells were centrifuged at 3000 rpm for 5 min and the supernatant was removed. After that, the cells were resuspended in 0.5 mL wash buffer (provided in the kit) and centrifuged at 3000 rpm for 5 min. This step was repeated before performing the analysis with flow cytometer (Accuri C6) and a minimum of 10,000 events were acquired for each replicate.
A general note: In flow cytometry, cells or beads pass a laser one at a time.

In experiment [1] the test system is hepatitis C virus, hepatoma cell line (Huh7.5). Also noted: method as in PMID 25454460. The settings on record: cited from earlier work.
A further experiment deals with A549 cell line. As to the kind of experiment: SRB in vitro cytotoxicity screening. It is filed as cell-based, human. Here is the method: The human cell lines A549 (lung cancer) and Ca Ski (cervical cancer) were cultured as monolayer in RPMI 1640 growth media whereas HCT-116 (colon cancer) and MRC5 (human normal lung fibroblasts) was cultured in McCoy’s 5A and EMEM medium, respectively. All cells were purchased from the […] (ATCC, USA). All the media were supplemented with 10 % v/v foetal bovine serum (FBS), 100 μg/mL penicillin/streptomycin, and 50 μg/mL amphotericin B. The cells were cultured in a 5 % CO2 incubator at 37 °C.
The monolayer cell culture was detached using accutase and the cell count was adjusted to 2.5 x10^5 -3.0 x10^5 cells/mL using medium containing feotal bovine serum. The cells were then plated into 96 wells with a cell density of 5000-7000 cells/well and then incubated for 24 h to allow adherence of cells to the base of well of the plates. The media was then removed and 200 μl of fresh media containing different concentration of various extracts or isolated compounds were added. Cisplatin was used as the positive control. The plates were incubated for 24, 48 and 72 h at 37 °C and 5 % CO2. The cytotoxicity of the extracts and isolated compounds were screened using the […] (SRB) assay. This assay was first described by Houghton in 2007 [8]. The incubation was halted by gentle addition of 50 μl ice cold 4 % trichloroacetic acid (TCA) to each well and the plates were incubated at 4 °C for 1 h. Then, the supernatant was discarded and the plates were washed with distilled water for 5 times and then air dried. SRB dye, 50 μl, (0.4 % w/v) was added into each well and the treated cells and control were incubated at room temperature for 30 min. The unbound dye was removed by rapid washing four times with 1 % acetic acid. The plates were then air dried and 100 μl of tris base (10 mM unbuffered, pH 10.5) was added and the plates were shaken at 500 rpm for 5 min to solublize the bound SRB stain. The plates were then read with an ELISA reader (Synergy H1 Hybrid) at an absorbance of 492 nm.

For the compound `C=CC(C)(C)c1cc2cc3c(cc2oc1=O)O[C@H](C(C)(C)O)C3` [Chalepin, chalepin], in the experiment with A549 cells, the “ROS fold increase vs untreated control” value worked out at 62.24 fold. The “active caspase 9, V1-R (apoptotic population)” value with caspase 9 in A549 cells (A549, 48 h) is given as 22.57 ± 0.21%; with caspase 9 in A549 cells (A549, 72 h), 33.5 ± 0.35%. The “fold increase in activation of caspase 9 vs untreated control” value in the experiment on caspase 9 in A549 cells (A549, 72 h) came out at 8.44 fold. The “replication of hepatitis C virus” value in experiment [1] is “stop the replication”. Further, the IC50 in the experiment with A549 cell line (Homo sapiens, A549, 48 h, isolated compounds, 48 h, value in brackets, read-out: IC50 in μg/ml (μM) (A549) 48 h (converted)) is 90.1 µM; with A549 cell line (Homo sapiens, A549, 48 h, isolated compounds, 48 h, read-out: IC50 in μg/ml (μM) (A549) 48 h (converted)), 28.3 ± 1.06 µg/mL; in the experiment on A549 cell line (Homo sapiens, A549, 72 h, isolated compounds, 72 h, read-out: IC50 in μg/ml (μM) (A549) 72 h (converted)), 8.69 ± 2.43 µg/mL; in the experiment on A549 cell line (Homo sapiens, A549, 72 h, read-out: IC50 in μg/ml (μM) (A549) 72 h, isolated compounds, 72 h, value in brackets), 27.6 µM; with A549 cell line (isolated compounds, 72 h, value in brackets, read-out: IC50 in μg/ml (μM) (A549) 72 h (converted)) it was 28 µM.

The values are drawn from publication PMC5059921, “Chalepin: isolated from Ruta angustifolia L. Pers induces mitochondrial mediated apoptosis in lung carcinoma cells” (BMC Complementary and Alternative Medicine, 2016).
